According to patent US11479617B2, “Chelator-functionalized glycosaminoglycans” (priority 2018, dated 2022):

| Molecule | maximal inhibitory concentration (RAW 264.7 macrophages) | maximal inhibitory concentration (NIH-3T3 fibroblasts) | cytocompatibility (cell enumeration, metabolism, toxicity) (RAW 264.7 macrophages) | cytocompatibility (cell enumeration, metabolism, toxicity) (NIH-3T3 fibroblasts) |
| --- | --- | --- | --- | --- |
| O.O.O.O.O.O.[Cl-].[Cl-].[Co+2] [CoCl2.6H2O] | ~50 µg/mL | ~25 µg/mL | – | – |
| hyaluronic acid [HA] | – | – | cytocompatible | cytocompatible |
